According to patent US5866681A, “Thrombin receptor antagonists” (priority 1995, dated 1999):
*1 amine or outer side, *2 acyl side, *3 side chain or, on linkers, in order; H or OH if unused. Where a SMILES comes first, the peptide text is derived from it. Where no end group is shown, it is not given here. [ ]: non-standard residue; d: D form. The star is where a group is joined. Isoquinolin(3-yl)carbonyl = O=C(c1cc2ccccc2cn1)*; X16 = CCCCCN([C@@H](Cc1ccccc1)C(=O)[*:2])[*:1]; 2Naphthylsulfonyl = O=S(=O)(c1ccc2ccccc2c1)*; Quinoxaline2carbonyl = O=C(c1cnc2ccccc2n1)*; Quinoline3carbonyl = O=C(c1cnc2ccccc2c1)*; X6 = CCCCCN(CCCCC)[C@@H](Cc1ccccc1)C(=O)*; Butanoyl(2-OPh) = CCC(Oc1ccccc1)C(=O)*; X5 = CCCCCN(C)[C@@H](Cc1ccccc1)C(=O)*; X4 = CCCCCN1Cc2ccccc2C[C@H]1C(=O)*; NMeR = CN[C@@H](CCCNC(=N)N)C(=O)O; Quinaldoyl = O=C(c1ccc2ccccc2n1)*; hArg = N=C(N)NCCCC[C@H](N)C(=O)O; Cha = N[C@@H](CC1CCCCC1)C(=O)O; dCha = N[C@H](CC1CCCCC1)C(=O)O; X2 = O=C(Cc1c[nH]c2ccccc12)*; X8 = O=C(C1CCc2ccccc2C1)*; Orn = NCCC[C@H](N)C(=O)O

Target: T1, thrombin receptor (Homo sapiens, UniProt P25116)
T1 construct: washed human platelets are prepared from blood drawn from healthy volunteers; endogenous in cells; host or cells: washed human platelets from healthy volunteers
T1 sequence (P25116 22-425): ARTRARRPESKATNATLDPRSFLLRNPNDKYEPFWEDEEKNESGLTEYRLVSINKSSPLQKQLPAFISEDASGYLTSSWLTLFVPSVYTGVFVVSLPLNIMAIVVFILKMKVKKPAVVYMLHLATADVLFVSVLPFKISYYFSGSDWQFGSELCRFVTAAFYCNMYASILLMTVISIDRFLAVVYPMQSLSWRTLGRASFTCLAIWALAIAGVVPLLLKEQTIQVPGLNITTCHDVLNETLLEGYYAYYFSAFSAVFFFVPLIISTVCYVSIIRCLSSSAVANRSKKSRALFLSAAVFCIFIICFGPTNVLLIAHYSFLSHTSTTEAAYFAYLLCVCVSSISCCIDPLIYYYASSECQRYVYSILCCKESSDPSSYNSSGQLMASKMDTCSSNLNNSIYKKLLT
Assay: Platelet aggregation assay for thrombin receptor antagonist activity (washed human platelets stimulated with α-thrombin)
Format: cell-based
Conditions: not given
Description: The compounds of the present invention may be tested for thrombin receptor antagonist activity by using a platelet aggregation assay. In this assay, washed human platelets are prepared from blood drawn from healthy volunteers who have not ingested any medications for two weeks prior to donation. Blood is drawn into 12.5% (vol/vol) ACD (85 mM sodium citrate, 111 mM dextrose, 71 mM citric acid) containing 0.1% (vol/vol) PGI2 (0.05 mg/mL PGI2, 100 mM Tris, pH 12). Platelet-rich plasma was obtained by centrifugation at 160×g for 20 minutes. The platelets were pelleted by centrifugation at 760×g for 10 minutes and resuspended in CGS (13 mM trisodium citrate, 120 mM sodium chloride, 30 mM dextrose, pH 7.0) containing 0.1% (vol/vol) PGI2, repelleted and resuspended in Tyrodes buffer (10 mM Hepes, 12 mM sodium bicarbonate, 138 mM sodium chloride, 5.5 mM glucose, 2.9 mM potassium chloride, 1.0 mM calcium chloride, pH 7.4) and stored at 37° C. Approximately 0.4-10 nM α-thrombin is used to stimulate platelet aggregation in control reactions which are monitored by aggregometry using an aggregometer. Candidate antagonists are added to the platelet mixture followed by the addition of thrombin in order to assess their ability to prevent thrombin-mediated aggregation.
Platelet aggregation can also be measured with washed platelets in 96-well microtiter plates as described in Fratantoni, J. C. et al., Am. J. Clin. Pathol. 94:613-617 (1990). The ability of the antagonists to block the thrombin receptor was assessed in this assay using various concentrations of antagonists. The concentration at which 50% inhibition of platelet aggregation is achieved is defined as IC50.

Molecule | IC50 [µM]
N=C(N)NCCC[C@H](NC(=O)[C@H](CC1CCCCC1)NC(=O)[C@H](CC1CCCCC1)NC(=O)c1cc2ccccc2cn1)C(=O)N[C@@H](CCCCN)C(N)=O [Compound 32] ({Isoquinolin(3-yl)carbonyl}-[Cha][Cha]RK-NH2) | 15
CCCCCN(C)[C@@H](Cc1ccccc1)C(=O)N[C@@H](CC1CCCCC1)C(=O)N[C@H](CC1CCCCC1)C(=O)N[C@@H](CCCNC(=N)N)C(=O)N[C@@H](CCCCN)C(N)=O [Compound 43] (X5-[Cha][dCha]RK-NH2) | 15

Same assay, conditions: washed human platelets, thrombin-mediated aggregation; read-out: IC50 (concentration at which 50% inhibition of platelet aggregation is achieved)

Molecule | IC50 [µM]
N=C(N)NCCC[C@H](NC(=O)[C@H](CC1CCCCC1)NC(=O)[C@H](CC1CCCCC1)NC(=O)c1ccc2ccccc2n1)C(=O)N[C@@H](CCCCN)C(N)=O [Compound 28] (Quinaldoyl-[Cha][Cha]RK-NH2) | 30
N=C(N)NCCC[C@H](NC(=O)[C@H](CC1CCCCC1)NC(=O)[C@H](CC1CCCCC1)NC(=O)c1cnc2ccccc2c1)C(=O)N[C@@H](CCCCN)C(N)=O [Compound 29] (Quinoline3carbonyl-[Cha][Cha]RK-NH2) | > 200
N=C(N)NCCC[C@H](NC(=O)[C@H](CC1CCCCC1)NC(=O)[C@H](CC1CCCCC1)NC(=O)Cc1c[nH]c2ccccc12)C(=O)N[C@@H](CCCCN)C(N)=O [Compound 30] (X2-[Cha][Cha]RK-NH2) | 20
N=C(N)NCCC[C@H](NC(=O)[C@H](CC1CCCCC1)NC(=O)[C@H](CC1CCCCC1)NC(=O)C1CCc2ccccc2C1)C(=O)N[C@@H](CCCCN)C(N)=O (stereo partly shown) [Compound 31] (X8-[Cha][Cha]RK-NH2) | > 200
N=C(N)NCCC[C@H](NC(=O)[C@H](CC1CCCCC1)NC(=O)[C@H](CC1CCCCC1)NC/C=C/c1ccccc1)C(=O)N[C@@H](CCCCN)C(N)=O [Compound 33] | 5
C/C(=C\c1ccccc1)CN[C@@H](CC1CCCCC1)C(=O)N[C@@H](CC1CCCCC1)C(=O)N[C@@H](CCCNC(=N)N)C(=O)N[C@@H](CCCCN)C(N)=O [Compound 34] | 15
CC/C(=C\c1ccccc1)CN[C@@H](CC1CCCCC1)C(=O)N[C@@H](CC1CCCCC1)C(=O)N[C@@H](CCCNC(=N)N)C(=O)N[C@@H](CCCCN)C(N)=O [Compound 35] | 20
CC(COc1ccccc1)N[C@@H](CC1CCCCC1)C(=O)N[C@@H](CC1CCCCC1)C(=O)N[C@@H](CCCNC(=N)N)C(=O)N[C@@H](CCCCN)C(N)=O (stereo partly shown) [Compound 36] | 7.5
N=C(N)NCCC[C@H](NC(=O)[C@H](CC1CCCCC1)NC(=O)[C@H](CC1CCCCC1)NC(=O)c1cnc2ccccc2n1)C(=O)N[C@@H](CCCCN)C(N)=O [Compound 37] (Quinoxaline2carbonyl-[Cha][Cha]RK-NH2) | > 100
N=C(N)NCCC[C@H](NC(=O)[C@H](CC1CCCCC1)NC(=O)[C@H](CC1CCCCC1)NS(=O)(=O)c1ccc2ccccc2c1)C(=O)N[C@@H](CCCCN)C(N)=O [Compound 38] (2Naphthylsulfonyl-[Cha][Cha]RK-NH2) | 10
CCCCCN1Cc2ccccc2C[C@H]1C(=O)N[C@@H](CC1CCCCC1)C(=O)N[C@@H](CC1CCCCC1)C(=O)N(C)[C@@H](CCCNC(=N)N)C(=O)N[C@@H](CCCNC(=N)N)C(N)=O [Compound 39] (X4-[Cha][Cha][NMeR]R-NH2) | 8
CCCCCN(CCCCC)[C@@H](Cc1ccccc1)C(=O)N[C@@H](CC1CCCCC1)C(=O)N[C@H](CC1CCCCC1)C(=O)N[C@@H](CCCNC(=N)N)C(=O)N[C@@H](CCCCN)C(N)=O [Compound 42] (X6-[Cha][dCha]RK-NH2) | 2
CCCCCN[C@@H](Cc1ccccc1)C(=O)N[C@@H](CC1CCCCC1)C(=O)N[C@H](CC(C)C)C(=O)N[C@@H](CCCNC(=N)N)C(=O)N[C@@H](CCCCN)C(N)=O [Compound 44] (H-[X16][Cha][dL]RK-NH2) | 5
CCCCCN[C@@H](Cc1ccccc1)C(=O)N[C@H](CC(C)C)C(=O)N[C@@H](CC1CCCCC1)C(=O)N[C@@H](CCCNC(=N)N)C(=O)N[C@@H](CCCCN)C(N)=O [Compound 45] (H-[X16][dL][Cha]RK-NH2) | 5
CCC(Oc1ccccc1)C(=O)N[C@@H](Cc1ccccc1)C(=O)N[C@@H](CC1CCCCC1)C(=O)N[C@@H](CCCNC(=N)N)C(=O)N[C@@H](CCCCN)C(N)=O (stereo partly shown) [Compound 46] ({Butanoyl(2-OPh)}-F[Cha]RK-NH2) | 15
CCC(Oc1ccccc1)C(=O)N[C@@H](CC1CCCCC1)C(=O)N[C@@H](CC1CCCCC1)C(=O)N[C@@H](CCCCNC(=N)N)C(=O)N[C@@H](CCCCN)C(N)=O (stereo partly shown) [Compound 47] ({Butanoyl(2-OPh)}-[Cha][Cha][hArg]K-NH2) | 2.5
CCC(Oc1ccccc1)C(=O)N[C@@H](CC1CCCCC1)C(=O)N[C@@H](CC1CCCCC1)C(=O)N[C@@H](CCCNC(=N)N)C(=O)N[C@@H](CCCN)C(N)=O (stereo partly shown) [Compound 48] ({Butanoyl(2-OPh)}-[Cha][Cha]R[Orn]-NH2) | 10
CCC(Oc1ccccc1)C(=O)N[C@@H](CC1CCCCC1)C(=O)N[C@@H](CC1CCCCC1)C(=O)N[C@@H](CCCCN)C(=O)N[C@@H](CCCCN)C(N)=O (stereo partly shown) [Compound 49] ({Butanoyl(2-OPh)}-[Cha][Cha]KK-NH2) | 75
CCC(Oc1ccccc1)C(=O)N[C@@H](CC1CCCCC1)C(=O)N[C@@H](CC1CCCCC1)C(=O)N[C@@H](CCCN)C(=O)N[C@@H](CCCCN)C(N)=O (stereo partly shown) [Compound 50] ({Butanoyl(2-OPh)}-[Cha][Cha][Orn]K-NH2) | 100
CCC(Oc1ccccc1)C(=O)N[C@@H](CC1CCCCC1)C(=O)N[C@@H](CC1CCCCC1)C(=O)N[C@@H](CCCNC(=N)N)C(=O)N[C@@H](CCCNC(=N)N)C(N)=O (stereo partly shown) [Compound 51] ({Butanoyl(2-OPh)}-[Cha][Cha]RR-NH2) | 2.5
CCC(Oc1ccccc1)C(=O)N[C@@H](CC1CCCCC1)C(=O)N[C@@H](CC1CCCCC1)C(=O)N[C@@H](CCCNC(=N)N)C(=O)N[C@H](CCCCN)C(N)=O (stereo partly shown) [Compound 52] ({Butanoyl(2-OPh)}-[Cha][Cha]R[dK]-NH2) | 15
CCC(Oc1ccccc1)C(=O)N[C@@H](CC1CCCCC1)C(=O)N[C@@H](CC1CCCCC1)C(=O)N(C)[C@@H](CCCNC(=N)N)C(=O)N[C@@H](CCCCN)C(N)=O (stereo partly shown) [Compound 53] ({Butanoyl(2-OPh)}-[Cha][Cha][NMeR]K-NH2) | 2
CCC(Oc1ccccc1)C(=O)N[C@@H](CC1CCCCC1)C(=O)N[C@@H](CC1CCCCC1)C(=O)N(C)[C@@H](CCCNC(=N)N)C(=O)N[C@@H](CCCNC(=N)N)C(N)=O (stereo partly shown) [Compound 54] ({Butanoyl(2-OPh)}-[Cha][Cha][NMeR]R-NH2) | 0.5
CCC(Oc1ccccc1)C(=O)N[C@@H](CC1CCCCC1)C(=O)N[C@@H](CC1CCCCC1)C(=O)N[C@@H](CCCCNC(=N)N)C(=O)N[C@@H](CCCNC(=N)N)C(N)=O (stereo partly shown) [Compound 55] ({Butanoyl(2-OPh)}-[Cha][Cha][hArg]R-NH2) | 1
CCC(Oc1ccccc1)C(=O)N[C@@H](Cc1ccccc1)C(=O)N[C@@H](CC1CCCCC1)C(=O)N[C@@H](CCCCNC(=N)N)C(=O)N[C@@H](CCCNC(=N)N)C(N)=O (stereo partly shown) [Compound 57] ({Butanoyl(2-OPh)}-F[Cha][hArg]R-NH2) | 2
CCC(Oc1ccccc1)C(=O)N[C@@H](CC1CCCCC1)C(=O)N[C@@H](CC1CCCCC1)C(=O)NCc1ccncc1 (stereo partly shown) [Compound 58] | > 100
CCC(Oc1ccccc1)C(=O)N[C@@H](CC1CCCCC1)C(=O)N[C@@H](CC1CCCCC1)C(=O)NCCCN1CCN(CCCN)CC1 (stereo partly shown) [Compound 59] | 90
CCC(Oc1ccccc1)C(=O)N[C@@H](CC1CCCCC1)C(=O)N[C@@H](CC1CCCCC1)C(=O)NCCCN(C)C (stereo partly shown) [Compound 60] | 25

Target: T2, platelet thrombin receptors (Homo sapiens, UniProt P25116)
T2 construct: host or cells: platelets
T2 sequence (P25116 22-425): T1 sequence (P25116 22-425)
Assay: not given
Conditions: platelet thrombin receptors activated with either thrombin or agonist peptides; cited from earlier work

Molecule | thrombin receptor antagonist activity
Phe-Leu-Leu-Arg-Asn-OH (FLLRN-OH) [pentapeptide based on a portion of the agonist peptide minimum structure] | weak antagonist
